According to ChEMBL document CHEMBL5143742, “Discovery and Characterization of a Novel Series of Chloropyrimidines as Covalent Inhibitors of the Kinase MSK1” (ACS Med Chem Lett, 2022):

What was measured:
[1] = Intrinsic clearance in human liver microsomes assessed per mg protein; type: ADME, Microsome
[2] = Intrinsic clearance in mouse liver microsomes assessed per mg protein; type: ADME, Microsome
[3] = Lipophilicity, log D of the compound; type: physicochemical; conditions: octanol/water

Work on `Clc1ncc(Cl)c(-n2ccc3ncccc32)n1` yielded a CLH [1] of 11.7 µL/min, a CLH [2] of 131 µL/min and a logD [3] of 2.3.
